Consider one molecule from US8629132B2, “Kinase inhibitors” (Genosco, priority 2009, dated 2014).

The assay relates to HEL cells. Briefly: Cell viability assay: JAK2 inhibition. The format is cell-based, human. How it is done:
Compounds of the invention are tested for their effects on JAK2 inhibition in human erythroleukemic cell line (HEL) to illustrate potential efficacy at the cellular level. The Janus-associated kinase (JAK) family, comprised of four different protein tyrosine kinases JAK1, JAK2, JAK3, and TYK2, plays an important role in cellular survival, proliferation, and differentiation. V617F, a unique mutation in the JAK2 gene (a valine-to-phenylalanine substitution) results in constitutive kinase activity and promotes deregulated hematopoiesis. JAK2 V617F is frequently detected in myeloproliferative disorders (MPDs), a group of clonal hematopoietic stem cell disorders that include polycythemia vera (PV), essential thrombocythemia (ET), and idiopathic myelofibrosis (IMF), all of which have the potential to transform to acute myeloid leukemia. JAK2 V617F is constitutively phosphorylated and able to activate downstream signaling in the absence of cytokine stimulation.
Compounds of the present invention were tested for their effects on viability of HEL cells. For cell viability assay, HEL cells expressing human JAK2 V617F were obtained from the American Type Culture Collection (ATCC, Manassas, Va.). This cell line was maintained with Roswell Park Memorial Institute (RPMI) medium (HyClone™) containing 10 bovine calf serum (BCS; Hyclone™) supplemented iron. The HEL cells were seeded at 2×10^4 cells in 96 well culture plates, and serially diluted compound was then added. After a 72-hour incubation period at 37° C., viability of cells was measured using the ATPLite 1 step assay (Perkin-Elmer™) that is based on the quantification of ATP from viable cells. CellTiter Aqueous assay (Promega™) was also performed in parallel as an orthogonal assay. IC50 values were calculated using nonlinear regression and defined as the concentration needed for a 50 reduction in luminescence or absorbance treated versus untreated control cells (Prism™ Software).

As for `COc1cc(Nc2ncc(C)c(-n3cc(C)c(CO)c3)n2)cc(OC)c1OC` [Compound 21, (4-methyl-1-(5-methyl-2-(3,4,5-trimethoxyphenylamino)pyrimidin-4-yl)-1H-pyrrol-3-yl)methanol], the “inhibition level compared with Sorafenib” value (HEL) is “greater than those exhibited by Sorafenib”. Also, the IC50 (Homo sapiens, 72-hour incubation, HEL cells expressing JAK2 V617F, read-out: Cell Viability: JAK2 kinase Inhibition HEL (IC50 nM)) was found to be 144 nM.
